From PubChem BioAssay (NCI)
“And” between values parts separate entries of the source, which are not always exact repeats. Equal values may be shown once.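 Protocol summary: plate cells (96-well), add compound at 5 concentrations, incubate 48 h, interpolate endpoints linearly. Here, GI50 denotes the concentration required for 50% inhibition of growth. TGI: concentration producing complete growth inhibition.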

Columns and labels:
Experiment in all cases: NCI tumour cell line growth inhibition, 48 h
786-0 renal = system: 786-0 renal
HT29 colon = system: HT29 colon
K-562 leukemia = system: K-562 leukemia
MDA-MB-435 = system: MDA-MB-435
MOLT-4 leukemia = system: MOLT-4 leukemia
OVCAR-4 ovarian = system: OVCAR-4 ovarian
SNB-75 CNS = system: SNB-75 CNS
SR leukemia = system: SR leukemia
SW-620 colon = system: SW-620 colon
UO-31 renal = system: UO-31 renal

## COC(=O)[C@]12CC[C@@H](C)[C@H](C)[C@@H]1C1=CC[C@@H]3[C@@]4(C)C[C@@H](O)[C@H](O)[C@@](C)(CO)C4=CC[C@@]3(C)[C@]1(C)CC2
786-0 renal
  GI50: 18.5 µM
  TGI: 34.5 µM
HT29 colon
  GI50: 15.9 µM
  TGI: 33.5 µM
K-562 leukemia
  GI50: 17.5 µM
  TGI: 36.6 µM
MDA-MB-435
  GI50: 15.4 µM
  TGI: 30.3 µM
MOLT-4 leukemia
  GI50: 15.5 µM
  TGI: 31.7 µM
OVCAR-4 ovarian
  GI50: 15.9 µM
  TGI: 32.8 µM
SNB-75 CNS
  GI50: 14.3 µM
  TGI: 28 µM
SR leukemia
  GI50: 17.1 µM
  TGI: 37.4 µM
SW-620 colon
  GI50: 16.9 µM
  TGI: 34.1 µM
UO-31 renal
  GI50: 14.6 µM
  TGI: 30.1 µM

## CCN1CCN(c2cc(C)c3cc(NC(=O)c4ccc(OC)c(OC)c4)ccc3n2)CC1
786-0 renal
  GI50: 7.12 µM
  TGI: > 55.3 µM
HT29 colon
  GI50: 1.31 µM
  TGI: > 100 µM
K-562 leukemia
  GI50: 2.75 µM
  TGI: > 100 µM
MDA-MB-435
  GI50: 0.448 µM
  TGI: 5.56 µM
MOLT-4 leukemia
  GI50: 6.21 µM
  TGI: 88.9 µM
OVCAR-4 ovarian
  GI50: 11 µM
  TGI: > 100 µM
SNB-75 CNS
  GI50: 5.54 µM
  TGI: > 61.3 µM
SR leukemia
  GI50: 1.44 µM
  TGI: > 30.5 µM
SW-620 colon
  GI50: 4.21 µM
  TGI: > 42.3 µM
UO-31 renal
  GI50: > 37.4 µM
  TGI: > 73.2 µM

## Cc1nc(N)sc1N=Nc1ccccc1Br
786-0 renal
  TGI: 69.5 µM
HT29 colon
  TGI: 59 µM
K-562 leukemia
  TGI: > 100 µM
MDA-MB-435
  TGI: 47.9 µM
MOLT-4 leukemia
  TGI: > 100 µM
OVCAR-4 ovarian
  TGI: > 61.9 µM
SNB-75 CNS
  TGI: 37.5 µM
SR leukemia
  TGI: > 100 µM
SW-620 colon
  TGI: > 100 µM
UO-31 renal
  TGI: 60.5 µM

## CCCC(=O)Nc1cn(COC)c(C(=O)N2C[C@@H]3C[C@]34C2=CC(=O)c2[nH]cc(C)c24)n1
786-0 renal
  GI50: 3.14 µM
  TGI: 14.8 µM and 10.1 µM
HT29 colon
  GI50: 11.2 µM
  TGI: 21.1 µM and 37.7 µM
K-562 leukemia
  GI50: 3.02 µM
  TGI: 50 µM and > 100 µM
MDA-MB-435
  GI50: 11.1 µM
  TGI: 27.4 µM and 27.1 µM
MOLT-4 leukemia
  GI50: 1.19 µM
  TGI: 3.8 µM and 21.2 µM
OVCAR-4 ovarian
  GI50: 4.66 µM
  TGI: 18.2 µM and 14.3 µM
SNB-75 CNS
  GI50: 14.3 µM
  TGI: 23.1 µM and 28.6 µM
SR leukemia
  TGI: 0.488 µM
SW-620 colon
  TGI: 50 µM and 47.7 µM
UO-31 renal
  GI50: 16.9 µM
  TGI: 30.3 µM and 57.3 µM

## COc1cc(N=Nc2ccc(O)c3ncccc23)c2ncccc2c1
786-0 renal
  GI50: 3.43 µM
  TGI: 24.2 µM
HT29 colon
  GI50: 6.65 µM
  TGI: > 100 µM
K-562 leukemia
  GI50: 3.44 µM
  TGI: > 100 µM
MDA-MB-435
  GI50: 4.64 µM
  TGI: > 100 µM
MOLT-4 leukemia
  GI50: 3.5 µM
  TGI: > 100 µM
OVCAR-4 ovarian
  GI50: 1.68 µM
  TGI: > 100 µM
SNB-75 CNS
  GI50: 4.53 µM
  TGI: > 100 µM
SR leukemia
  GI50: 2.2 µM
  TGI: > 100 µM
SW-620 colon
  GI50: 3.86 µM
  TGI: > 100 µM
UO-31 renal
  GI50: 2.56 µM
  TGI: 25.3 µM

## C=CCC1(c2ccc(OC)cc2)C=CC(=O)CC1 (stereo not drawn)
786-0 renal
  TGI: > 100 µM
HT29 colon
  TGI: > 100 µM
K-562 leukemia
  TGI: > 100 µM
MDA-MB-435
  TGI: > 100 µM
MOLT-4 leukemia
  TGI: > 100 µM
OVCAR-4 ovarian
  TGI: > 100 µM
SNB-75 CNS
  TGI: > 100 µM
SR leukemia
  TGI: > 100 µM
SW-620 colon
  TGI: > 100 µM
UO-31 renal
  TGI: > 100 µM

## NC(N)=N/N=C/c1c(Cl)cccc1Cl
786-0 renal
  GI50: 18 µM
  TGI: 43.7 µM
HT29 colon
  GI50: 17 µM
  TGI: 43.4 µM
K-562 leukemia
  GI50: 24.1 µM
  TGI: 63.1 µM
MDA-MB-435
  GI50: 15.3 µM
  TGI: 31.1 µM
MOLT-4 leukemia
  GI50: 28.2 µM
  TGI: 74.5 µM
OVCAR-4 ovarian
  GI50: 25.3 µM
  TGI: > 100 µM
SNB-75 CNS
  GI50: 16.7 µM
  TGI: 54.1 µM
SR leukemia
  GI50: 22.2 µM
  TGI: 56.3 µM
SW-620 colon
  GI50: 15.8 µM
  TGI: 30.6 µM
UO-31 renal
  GI50: 16.5 µM
  TGI: 64.7 µM

## CCC[CH2][Sn]([CH2]CCC)([O]C(=O)c1ccc(OC)c(OC)c1OC)[O][Sn]([CH2]CCC)([CH2]CCC)[O]C(=O)c1ccc(OC)c(OC)c1OC
786-0 renal
  GI50: 0.176 µM
  TGI: 0.456 µM
HT29 colon
  GI50: 0.831 µM
  TGI: 2.31 µM
K-562 leukemia
  GI50: 0.0416 µM
  TGI: 1.86 µM
MDA-MB-435
  GI50: 0.579 µM
  TGI: 1.9 µM
MOLT-4 leukemia
  GI50: 0.0804 µM
  TGI: 2.34 µM
OVCAR-4 ovarian
  GI50: 0.618 µM
  TGI: 1.87 µM
SNB-75 CNS
  GI50: 0.177 µM
  TGI: 0.744 µM
SR leukemia
  GI50: 0.315 µM
  TGI: > 100 µM
SW-620 colon
  GI50: 0.0889 µM
  TGI: 0.271 µM
UO-31 renal
  GI50: 0.546 µM
  TGI: 1.18 µM

## Cc1c(N(C)C)ccc2c(=O)c3cccc(CC(=O)O)c3oc12
786-0 renal
  TGI: > 100 µM
HT29 colon
  TGI: > 100 µM
K-562 leukemia
  TGI: > 100 µM
MDA-MB-435
  TGI: > 100 µM
MOLT-4 leukemia
  TGI: > 100 µM
OVCAR-4 ovarian
  TGI: > 100 µM
SNB-75 CNS
  TGI: > 100 µM
SR leukemia
  TGI: > 100 µM
SW-620 colon
  TGI: > 53.5 µM
UO-31 renal
  TGI: > 100 µM

## NS(=O)(=O)c1ccc(N=Nc2c(O)c(C(=O)O)cc3ccccc23)cc1
786-0 renal
  TGI: > 100 µM
HT29 colon
  TGI: > 100 µM
K-562 leukemia
  TGI: > 100 µM
MDA-MB-435
  TGI: > 100 µM
MOLT-4 leukemia
  TGI: > 100 µM
OVCAR-4 ovarian
  TGI: > 100 µM
SNB-75 CNS
  TGI: > 100 µM
SR leukemia
  TGI: > 96.1 µM
SW-620 colon
  TGI: > 100 µM
UO-31 renal
  TGI: > 100 µM

## CC1(C)OC2C(CO[Si](C)(C)C(C)(C)C)OC(n3c(I)c(C#C[Si](C)(C)C)c(=O)[nH]c3=O)C2O1 (stereo not drawn)
786-0 renal
  GI50: 13.1 µM
  TGI: 26.8 µM
HT29 colon
  GI50: 5.01 µM
  TGI: 23.7 µM
K-562 leukemia
  GI50: 1.61 µM
  TGI: 3.89 µM
MDA-MB-435
  GI50: 15.7 µM
  TGI: 44.3 µM
MOLT-4 leukemia
  GI50: 1.47 µM
  TGI: 3.54 µM
OVCAR-4 ovarian
  GI50: 16.1 µM
  TGI: 31.8 µM
SNB-75 CNS
  GI50: 36.7 µM
  TGI: > 100 µM
SR leukemia
  GI50: 1.42 µM
  TGI: 4.3 µM
SW-620 colon
  GI50: 1.69 µM
  TGI: 3.21 µM
UO-31 renal
  GI50: 2.63 µM
  TGI: 10.4 µM
